Test results reported in PubChem BioAssay AID330 (DTP/NCI, 2004).
Where “and” joins values, the source holds several entries; their conditions need not be identical. Identical values can stand only once. Inconclusive results and toxic doses are left out. Rule for the calls: active = survival T/C of 150% or more; inactive = T/C below 125% in these data.

System: P388 leukemia ip, CD2F1 mice, survival T/C
Test: NCI In Vivo Anticancer Drug Screen. Data for tumor model P388 Leukemia (intraperitoneal) in CD2F1 (CDF1) mice
Conditions: endpoint: median survival time, higher = longer survival
In short: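 Mice carrying the transplanted tumor received test compound or vehicle. Survival was recorded in each group, and the value is the treated-group measurement divided by that of the vehicle-treated control group.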

[1] = dose: 50.0 mg/kg/injection, schedule: Q01DX009 (ip), vehicle: Klucel (hydroxypropylcellulose) (HPC)
[2] = dose: 100.0 mg/kg/injection, schedule: Q01DX009 (ip), vehicle: Klucel (hydroxypropylcellulose) (HPC)
[3] = dose: 200.0 mg/kg/injection, schedule: Q01DX009 (ip), vehicle: Klucel (hydroxypropylcellulose) (HPC)
[4] = dose: 50.0 mg/kg/injection, schedule: Q01DX005 (ip), vehicle: Klucel (hydroxypropylcellulose) (HPC)
[5] = dose: 100.0 mg/kg/injection, schedule: Q01DX005 (ip), vehicle: Klucel (hydroxypropylcellulose) (HPC)
[6] = dose: 200.0 mg/kg/injection, schedule: Q01DX005 (ip), vehicle: Klucel (hydroxypropylcellulose) (HPC)
[7] = dose: 100.0 mg/kg/injection, schedule: Q01DX001 (ip), vehicle: Klucel (hydroxypropylcellulose) (HPC)
[8] = dose: 200.0 mg/kg/injection, schedule: Q01DX001 (ip), vehicle: Klucel (hydroxypropylcellulose) (HPC)
[9] = dose: 400.0 mg/kg/injection, schedule: Q01DX001 (ip), vehicle: Klucel (hydroxypropylcellulose) (HPC)
[10] = dose: 25.0 mg/kg/injection, schedule: Q01DX009 (ip), vehicle: saline with Tween-80
[11] = dose: 60.0 mg/kg/injection, schedule: Q01DX005 (ip), vehicle: saline with Tween-80
[12] = dose: 120.0 mg/kg/injection, schedule: Q01DX005 (ip), vehicle: saline with Tween-80
[13] = dose: 100.0 mg/kg/injection, schedule: Q01DX009 (ip), vehicle: saline with Tween-80
[14] = dose: 200.0 mg/kg/injection, schedule: Q01DX009 (ip), vehicle: saline with Tween-80
[15] = dose: 50.0 mg/kg/injection, schedule: Q01DX009 (ip), vehicle: saline with Tween-80
[16] = dose: 50.0 mg/kg/injection, schedule: Q04DX003 (ip), vehicle: saline with Tween-80
[17] = dose: 100.0 mg/kg/injection, schedule: Q04DX002 (ip), vehicle: saline with Tween-80
[18] = dose: 200.0 mg/kg/injection, schedule: Q04DX002 (ip), vehicle: saline with Tween-80
[19] = dose: 100.0 mg/kg/injection, schedule: Q04DX003 (ip), vehicle: saline with Tween-80
[20] = dose: 200.0 mg/kg/injection, schedule: Q04DX003 (ip), vehicle: saline with Tween-80
[21] = dose: 50.0 mg/kg/injection, schedule: Q01DX005 (ip), vehicle: saline with Tween-80
[22] = dose: 100.0 mg/kg/injection, schedule: Q01DX005 (ip), vehicle: saline with Tween-80

Measured: T/C

CNCCOC(=O)/C=C1/CCC2C(C(O)CC3C(C)(C(=O)OC)CCCC23C)C1C (centres undefined)
inactive: dose: 1.5 mg/kg/injection, schedule: Q01DX009 (ip), vehicle: saline 110 % of control | dose: 3.0 mg/kg/injection, schedule: Q01DX009 (ip), vehicle: saline 102 % of control | dose: 6.0 mg/kg/injection, schedule: Q01DX009 (ip), vehicle: saline 106 % of control

CC1CCCCN1C(=S)Nc1ccc(S(=O)(=O)N2CCCCC2)cc1 (centres undefined)
inactive: [1] 94 % of control | [2] 101 % of control | [3] 92 % of control

CC(C)NC(=O)N(CCCCBr)N=O
inactive: dose: 6.25 mg/kg/injection, schedule: Q01DX009 (ip), vehicle: Klucel (hydroxypropylcellulose) (HPC) 92 % of control | dose: 12.5 mg/kg/injection, schedule: Q01DX009 (ip), vehicle: Klucel (hydroxypropylcellulose) (HPC) 99 % of control | dose: 25.0 mg/kg/injection, schedule: Q01DX009 (ip), vehicle: Klucel (hydroxypropylcellulose) (HPC) 101 % of control | [1] 117 % of control

C=Cc1c2ccccc2cc2ccccc12
inactive: [4] 109 % of control | [5] 106 % of control | [6] 100 % of control

COC(=O)Nc1nnc(Cn2c([N+](=O)[O-])cnc2C)s1
inactive: [7] 96 % of control | [8] 101 % of control | [9] 93 % of control

CCc1nc2c(cnn2C)c(=O)n1C
inactive: [4] 89 % of control | [5] 98 % of control | [6] 90 % of control

NN1C(=O)c2cccc3cccc(c23)C1=O
inactive: dose: 3.13 mg/kg/injection, schedule: Q01DX009 (ip), vehicle: saline with Tween-80 105 % of control | dose: 6.25 mg/kg/injection, schedule: Q01DX009 (ip), vehicle: saline with Tween-80 100 % of control | dose: 12.5 mg/kg/injection, schedule: Q01DX009 (ip), vehicle: saline with Tween-80 100 % of control | [10] 105 % of control

CC(C)(C(=O)O)n1c(-c2ccccc2)c(-c2ccccc2)oc1=O
inactive: dose: 8.75 mg/kg/injection, schedule: Q01DX005 (ip), vehicle: Klucel (hydroxypropylcellulose) (HPC) 106 % of control | dose: 17.5 mg/kg/injection, schedule: Q01DX005 (ip), vehicle: Klucel (hydroxypropylcellulose) (HPC) 106 % of control | dose: 35.0 mg/kg/injection, schedule: Q01DX005 (ip), vehicle: Klucel (hydroxypropylcellulose) (HPC) 106 % of control

NCCCn1[nH]c(=O)c2cnccc2c1=O
inactive: dose: 50.0 mg/kg/injection, schedule: Q01DX005 (ip), vehicle: saline 103 % of control | dose: 100.0 mg/kg/injection, schedule: Q01DX005 (ip), vehicle: saline 94 % of control | dose: 200.0 mg/kg/injection, schedule: Q01DX005 (ip), vehicle: saline 101 % of control

CCOC(=O)C(Cl)(SC(Cl)(S(=O)(=O)c1ccccc1)S(=O)(=O)c1ccccc1)C(=O)OCC
inactive: [1] 102 % of control | [2] 99 % of control | [3] 97 % of control

CC(NNC(=S)N1CCC(c2ccccc2)CC1)c1cc2ccccc2cn1 (centres undefined)
inactive: dose: 6.25 mg/kg/injection, schedule: Q01DX005 (ip), vehicle: saline with Tween-80 97 % of control | dose: 12.5 mg/kg/injection, schedule: Q01DX005 (ip), vehicle: saline with Tween-80 103 % of control | dose: 25.0 mg/kg/injection, schedule: Q01DX005 (ip), vehicle: saline with Tween-80 111 % of control

CCc1ccccc1NC1=C(Cl)C(=O)c2ccccc2C1=O
inactive: [11] 104 % of control | [12] 107 % of control

O=C(CCl)N/N=C(\Cc1ccccc1)c1ccccc1
inactive: [13] 97 % of control | [14] 98 % of control | dose: 400.0 mg/kg/injection, schedule: Q01DX009 (ip), vehicle: saline with Tween-80 103 % of control

CN=NN(C)C(=O)NC
inactive: dose: 12.5 mg/kg/injection, schedule: Q01DX005 (ip), vehicle: saline 102 % of control | dose: 25.0 mg/kg/injection, schedule: Q01DX005 (ip), vehicle: saline 117 % of control

CC(=O)Oc1[nH]c(=O)c2cccc3c2c1CCC3
inactive: [10] 102 % of control | [15] 101 % of control and 102 % of control | [13] 108 % of control and 112 % of control

C=C(C)c1nc(NCC)nc(NCC)n1
inactive: [7] 94 % of control | [8] 90 % of control | [9] 92 % of control

c1ccc(CSCCSCc2ccccn2)nc1
inactive: [4] 95 % of control | [5] 109 % of control | [6] 103 % of control

c1ccc2c(c1)CCc1ccccc1C2NC1=NCCO1
inactive: dose: 12.5 mg/kg/injection, schedule: Q04DX003 (ip), vehicle: saline with Tween-80 90 % of control | dose: 25.0 mg/kg/injection, schedule: Q04DX003 (ip), vehicle: saline with Tween-80 90 % of control | [16] 86 % of control

COc1cc(C(=O)CC(=O)CCC(=O)Nc2ccc(Cl)cc2)ccc1O
inactive: [11] 104 % of control | [12] 103 % of control | dose: 240.0 mg/kg/injection, schedule: Q01DX005 (ip), vehicle: saline with Tween-80 98 % of control

CCC(c1ccc(OCCS(=O)(=O)Oc2ccc(C)cc2)cc1)C(CC)c1ccc(OCCS(=O)(=O)Oc2ccc(C)cc2)cc1 (centres undefined)
inactive: dose: 50.0 mg/kg/injection, schedule: Q01DX009 (ip), vehicle: saline 106 % of control | dose: 100.0 mg/kg/injection, schedule: Q01DX009 (ip), vehicle: saline 87 % of control | dose: 200.0 mg/kg/injection, schedule: Q01DX009 (ip), vehicle: saline 95 % of control

COC(=O)c1ccc(C(=S)OC)cc1
inactive: [17] 108 % of control | [18] 100 % of control | dose: 400.0 mg/kg/injection, schedule: Q04DX002 (ip), vehicle: saline with Tween-80 101 % of control

COc1ccc(C2CC(=O)N(c3ccncc3)C(=O)C2)cc1
inactive: dose: 50.0 mg/kg/injection, schedule: Q04DX002 (ip), vehicle: saline with Tween-80 115 % of control | [17] 95 % of control | [18] 90 % of control

CN1C(=O)N(C)C2(C=Cc3ccccc3O2)N(C)C1=O
inactive: [16] 92 % of control | [19] 98 % of control | [20] 92 % of control

COC(=O)/C=C1\Sc2cc(F)ccc2NC1=O
inactive: [15] 92 % of control | [13] 98 % of control | [14] 100 % of control

COc1ccc(/C=N/NC(=O)CNC(=O)n2ccnc2)cc1
inactive: [21] 100 % of control | [22] 92 % of control | dose: 200.0 mg/kg/injection, schedule: Q01DX005 (ip), vehicle: saline with Tween-80 91 % of control

O=C1c2cccc3cccc(c23)C(=O)N1CCc1ccccn1
inactive: [21] 107 % of control | [22] 98 % of control

Cc1cc(N(C)C)cc(C)c1N=Nc1cc[n+]([O-])cc1
inactive: [10] 95 % of control | [15] 94 % of control | [13] 103 % of control | [14] 95 % of control

CC1(OC(=O)Nc2ccccc2)CCCCC1
inactive: [19] 96 % of control | [20] 100 % of control | dose: 400.0 mg/kg/injection, schedule: Q04DX003 (ip), vehicle: saline with Tween-80 97 % of control
